The values below come from patent publication US4975372A, “Microbial transformation product of L-683,590” (Merck & Co., Inc., priority 1989, dated 1990).

For data set [1] the following is noted: reputed; EPO Publication No. 0184162; cited from earlier work.
Another data set deals with mouse T lymphocytes. Put plainly: T-cell proliferation assay (ionomycin plus PMA induced, tritiated thymidine uptake). Format: cell-based, mouse (C57B1/6). The procedure: The principle of this assay is to measure the proliferation of mouse T lymphocytes stimulated with the combination of ionomycin plus PMA. A positive sample in this assay will inhibit T-cell proliferation, as indicated by reduced tritiated thymidine uptake.
Purified L-685,487, as prepared by HPLC above, was dissolved in absolute ethanol at 1 mg/ml.
Spleens from C57B1/6 mice were taken under sterile conditions and gently dissociated in ice-cold RPMI 1640 culture medium (GIBCO, Grand Island, N.Y.) supplemented with 10% heat-inactivated fetal calf serum (GIBCO). Cells were pelleted by centrifugation at 1500 rpm for 8 minutes. Contaminating red cells were removed by treating the pellet with ammonium chloride lysing buffer (GIBCO) for 2 minutes at 4° C. Cold medium was added and cells were again centrifuged at 1500 rpm. for 8 minutes. T lymphocytes were then isolated by separation of the cell suspension on nylon wool columns as follows: Nylon wool columns were prepared by packing approximately 4 grams of washed and dried nylon wool into 20 ml plastic syringes. The columns were sterilized by autoclaving at 250° F. for 30 minutes. Nylon wool columns were wetted with warm (37° C.) culture medium and rinsed with the same medium. Washed spleen cells resuspended in warm medium were slowly applied to the nylon wool. The columns were then incubated in an upright position at 37° C. for 1 hour. Non-adherent T lymphocytes were eluted from the columns with warm culture medium and the cell suspensions were spun as above.
Purified T lymphocytes were resuspended at 2.5×10^5 cells/ml in complete culture medium composed of RPMI 1640 medium with 10% heat-inactivated fetal calf serum, […] glutamine, 1 mM sodium pyruvate, 2×10^-5 M 2-mercaptoethanol and 50 μg/ml gentamycin. Ionomycin was added at 250 ng/ml and PMA at 10 ng/ml. The cell suspension was immediately distributed into 96 well flat-bottom microculture plates (Costar) at 200 μl/well. The control, being the medium without test drug, and various below-indicated dilutions of the sample (above-describedpurified L-683,756) to be tested were then added in triplicate wells at 20 μl/well. L-679,934 was used as a standard. The culture plates were then incubated at 37° C. in a humidified atmosphere of 5% CO2 -95% air for 44 hours. The proliferation of T lymphocytes was assessed by measurement of tritiated thymidine incorporation. After 44 hours of culturing, the cells were pulse-labelled with 2 μ Ci/well of tritiated thymidine (NEN, Cambridge, Mass.). After another 4 hours of incubation, cultures were harvested on glass fiber filters using a multiple sample harvester. Radioactivity of filter discs corresponding to individual wells was measured by standard liquid scintillation counting methods (Betacounter). Mean counts per minute of replicate wells were calculated and the results expressed as percent inhibition of tritiated thymidine uptake (proliferation) as follows: [formula]

Data set [2] is described as follows: Solubility (physical characteristics). Format: physicochemical. Conditions: methanol.

Where “and” joins values, the source holds several entries; their conditions need not be identical. Equal values may be shown once. Entries after “also recorded” stand apart in the source; their conditions may differ. Read-outs that look alike come from different tables or passages of the source.

`C=CC[C@@H]1/C=C(\C)C[C@H](C)C[C@H](OC)[C@H]2O[C@@](O)(C(=O)C(=O)N3CCCC[C@H]3C(=O)O[C@H](/C(C)=C/[C@@H]3CC[C@@H](O)[C@H](OC)C3)[C@H](C)[C@@H](O)CC1=O)[C@H](C)C[C@@H]2OC` [FK-506]: the “effectiveness relative to cyclosporin” value in data set [1] is given as 100 times.

Turning to `C=CC[C@@H]1/C=C(\C)C[C@H](C)C[C@H](OC)[C@H]2O[C@@](O)(C(=O)C(=O)N3CCCC[C@H]3C(=O)O[C@H](/C(C)=C/[C@@H]3CC[C@@H](O)[C@H](OC)C3)[C@H](C)[C@@H](O)CC1=O)[C@H](C)C[C@@H]2OC.O` [L679,934, reference compound], the “% inhibition, standard” value in the data set with mouse T lymphocytes (10 ng/ml) is given as 99%.

In the case of `CC[C@@H]1/C=C(\C)CC(C)C[C@H](OC)C(O)[C@@H]2CC(C)C(O)(O2)C(=O)C(=O)N2CCCC[C@H]2C(=O)O[C@H](/C(C)=C/[C@@H]2CC[C@@H](O)C(OC)C2)[C@H](C)C(O)CC1=O` (stereo partly drawn) [L-685,487], the inhibition at 0.00058 µg/mL with mouse T lymphocytes (Mus musculus, T-lymphocyte, 0.58 ng/ml) was 0%. For the same compound, the inhibition at 0.00087 µg/mL with mouse T lymphocytes (Mus musculus, T-lymphocyte, 0.87 ng/ml) is 0%. For the same compound, the inhibition at 0.0013 µg/mL with mouse T lymphocytes (Mus musculus, T-lymphocyte, 1.3 ng/ml) turned out to be 9%. For the same compound, in the data set with mouse T lymphocytes (Mus musculus, T-lymphocyte, 1.9 ng/ml), the inhibition at 0.0019 µg/mL is 10%. Also, in the data set with mouse T lymphocytes (Mus musculus, T-lymphocyte, 2.9 ng/ml), the inhibition at 0.0029 µg/mL came out at 10%. In addition, the inhibition at 0.0044 µg/mL in the data set with mouse T lymphocytes (Mus musculus, T-lymphocyte, 4.4 ng/ml) is 39%. Moreover, in the data set on mouse T lymphocytes (Mus musculus, T-lymphocyte, 6.6 ng/ml), the inhibition at 0.0066 µg/mL was determined as 71%. The inhibition at 0.0099 µg/mL in the data set on mouse T lymphocytes (Mus musculus, T-lymphocyte, 9.9 ng/ml) amounted to 88%. In addition, the inhibition at 0.015 µg/mL in the data set on mouse T lymphocytes (Mus musculus, T-lymphocyte, 15.0 ng/ml) was 92%. The inhibition at 0.022 µg/mL in the data set on mouse T lymphocytes (Mus musculus, T-lymphocyte, 22.0 ng/ml) was found to be 98%. The inhibition at 0.033 µg/mL in the data set on mouse T lymphocytes (Mus musculus, T-lymphocyte, 33.0 ng/ml) worked out at 99%. In addition, in the data set on mouse T lymphocytes (Mus musculus, T-lymphocyte, 50.0 ng/ml), the inhibition at 0.05 µg/mL amounted to 99%. Moreover, the IC50 with mouse T lymphocytes (Mus musculus, T-lymphocyte, T-cell proliferation, 3H-thymidine pulse 4 hours, harvest at 48 hours, read-out: IC50) was 0.0049 µg/mL and 6.3 nM; with mouse T lymphocytes (Mus musculus, T-lymphocyte, generally in the range, read-out: IC50, general range), 6 to 12 nM. Further, the “Inhibition of proliferation upon addition of IL2” value in the data set on mouse T lymphocytes (addition of 50 units/m of recombinant human IL2) is “Inhibition of proliferation was reversed”. Moreover, the “inhibition of T-cell activation (immunosuppressive activity)” value with mouse T lymphocytes (qualitative) is recorded as “positive inhibition of T-cell activation; also recorded: positive immunosuppressive activity”. Moreover, the Solubility entry in data set [2] is recorded as “Solubility in methanol”.
